# Literature values as cited in PMC12648288, “Drastic Impact of Donor Substituents on Xanthenes in the PDT of Glioblastoma” (JACS Au, 2025).
# Like-named read-outs stand apart in the source and are kept apart here. No end group written: not given here. TPC = chlorin-type photosensitizer; Ahx = NCCCCCC(=O)O
# How the values were obtained:
# [1] = cited from earlier work
# T98G = settings: ref 28 (SI list); cited from earlier work
# U87MG = settings: cited from earlier work; for IC50: 32 (SI list)
# SNB-19 = system: SNB-19; parameters: method as in ref 11 (SI list); settings: ref 11 (SI list); cited from earlier work
# F98 = settings: 31 (SI list); cited from earlier work
# [2] = in MeOH, as fraction; cited from earlier work
# HUVEC = system: HUVEC; parameters: method as in ref 16 (SI list); settings: ref 16 (SI list); cited from earlier work
# DBTRG-05 = system: DBTRG-05; parameters: method as in ref 29 (SI list); settings: ref 29 (SI list); cited from earlier work
# A172 = system: A172; parameters: method as in ref 29 (SI list); settings: ref 29 (SI list); cited from earlier work
# [3] = measured in PBS (pH 7.4), 22-32 (SI list)
molecule,measurement,setting,value
CN(C)c1ccc2cc3ccc(N(C)C)cc3nc2c1 [Acridine Orange],Abs (nm),[1]; [3],487 nm
COc1c(CC(C)O)c2c3c(CC(C)O)c(OC)c(=O)c4c(O)cc5c(c6c(cc(O)c(c1=O)c62)OCO5)c43 (centres unmarked) [Cercosporin],LD50,T98G,4 µM
same,LD50,U87MG; ref 28 (SI list),4 µM
same,Abs (nm),[1]; [3],473 nm
"COc1cc(/C=C/C(=O)CC(=O)/C=C/c2ccc(O)c(OC)c2)ccc1O [Curcumin (CUR), Curcumin]",IC50,SNB-19,5.74 µM
CCCCCCOC(C)c1c(C)c2cc3nc(c4c5[nH]c(cc6nc(cc1[nH]2)C(C)=C6CC)c(C)c5C(=O)C4)C(CCC(=O)Nc1ccc(SC2=C(C=CC4=[N+](CCCCS(=O)(=O)[O-])c5ccc6ccccc6c5C4(C)C)CCCC2=CC=C2N(CCCCS(=O)(=O)[O-])c4ccc5ccccc5c4C2(C)C)cc1)C3C.[Na+] (centres unmarked) [HPPH-CD],IC50,U87MG,1.63 µM
same,Abs (nm),[1]; [3],848 nm
"C=Cc1c(C)c2cc3nc(cc4nc(cc5[nH]c(cc1[nH]2)c(C)c5C(C)OC(C)c1c(C)c2cc5[nH]c(cc6nc(cc7nc(cc1[nH]2)C(C)=C7CCC(=O)[O-])C(CCC(=O)[O-])=C6C)c(C)c5C=C)C(C)=C4CCC(=O)[O-])C(CCC(=O)[O-])=C3C.[Na+].[Na+].[Na+].[Na+] (centres unmarked) [Sinoporphyrin sodium (DVDMS), Sinoporphyrin sodium]",Abs (nm),[1]; [3],631 nm
Cc1ccnc(-c2cc(C)ccn2)c1.Cc1ccnc(-c2cc(C)ccn2)c1.[Cl-].[Cl-].[Ru+2].c1csc(-c2ccc(-c3ccc(-c4nc5c6cccnc6c6ncccc6c5[nH]4)s3)s2)c1 [TLD1433],IC50,F98,2.81 µM
same,IC50,U87MG,0.051 µM
same,Abs (nm),[1]; [3],416 nm
[Zn+2].c1ccc2c(c1)-c1nc-2nc2[n-]c(nc3nc([n-]c4nc(n1)-c1ccccc1-4)-c1ccccc1-3)c1ccccc21 [ZnPc],Abs (nm),[1]; [3],645 nm
CN(C)c1ccc2nc3ccc(=[N+](C)C)cc-3sc2c1 [methylene blue],ΦF of reference standard,[2],0.23
Benzoporphyrin derivative [Benzoporphyrin derivative (BPD)],IC50,U87MG,13.1 µM
same,Abs (nm),[1]; [3],692 nm
TPC–Ahx–ATWLPPR: chlorin-type photosensitizer conjugated to neuropilin-1 targeting peptide (SI ref 16) ({TPC-Ahx}-ATWLPPR),Abs (nm),"[1]; EtOH, 16 (SI list)",420 nm
same,IC50,HUVEC,171 µM
Tetrahydroporphyrin-Tetratosylat [THPTS],IC30,DBTRG-05,4 µM
same,IC30,A172,10 µM
same,IC30,U87MG; ref 29 (SI list),2 µM
same,Abs (nm),[1]; [3],760 nm
[(Ph2phen)2Os(dpp)]2+,IC50,F98,86.1 µM
same,Abs (nm),[1]; [3],650 nm
